Experimental data from patent US6943164B2, “Pharmaceutical solutions of levosimendan” (Orion Corporation, priority 1999, dated 2005).
In brackets after ≈: the same amount, converted by molar mass.

Experiments:
pKa of levosimendan = type: physicochemical
Protocol: (§1) At room temperature the solubility of levosimendan in phosphate buffer is 0.4 mg/ml (pH 7.4), 0.03 mg/ml (pH 6) and 0.02 mg/ml (pH 2). Thus, the water solubility of levosimendan decreases quite sharply when pH is lowered below neutral. […] Such solutions are chemically and physically stable over an extended period of time and, therefore, they are particularly suitable for pharmaceutical use.

[1] = Solubility of levosimendan in phosphate buffer at room temperature; type: physicochemical; conditions: aqueous buffer
Protocol: as §1

For `CC1CC(=O)NN=C1c1ccc(NN=C(C#N)C#N)cc1` (single isomer, unassigned; (-)) [levosimendan, (−)-[[4-(1,4,5,6-tetrahydro-4-methyl-6-oxo-3-pyridazinyl)phenyl]hydrazono]propanedinitrile], the pKa (pKa of levosimendan) was 6.26, the solubility ([1]; pH 2) was 20 µg/mL (≈ 71.4 µM) and the solubility ([1]; pH 6) was 30 µg/mL (≈ 107 µM). The solubility ([1]; pH 7.4) was 400 µg/mL (≈ 1430 µM).
